The values below come from paper PMC6281413, “Inhibition of breast cancer metastasis to the lungs with UBS109” (Oncotarget, 2018).

Several values for one entry are separate records, joined by “and”; a condition that tells them apart may be missing. Equal entries are not always repeated. Entries after “also recorded” stand apart in the source; their conditions may differ. Where two headings read alike, the source gives them in different places.

In series [1] the test system is human pancreatic cancer cells MiaPaca-2, ASPC-1, PT45P1 and PT45P1/asTF+. Details: method as in doi:10.14319/ijcto.32.19. As to conditions: cited from earlier work; for ranking of the cytotoxic activities: four human pancreatic cancer cell lines.
In series [2] the test system is NCI-60 cancer cell line panel. The arrangement: method as in PMID 15210154, PMID 15711178, PMID 16722634. The following applies: mean, read-out: mean growth inhibitory concentration GI50; cited from earlier work.
Series [3] concerns MDA-MB-231 breast cancer cells. Details: method as in PMID 24628271. The following applies: at 1.25 μM, in vitro; cited from earlier work.
Series [4] relates to MDA-MB-231 xenografts in the lungs. Kind of series: breast cancer lung metastasis (colonization) model, MDA-MB-231 cells injected into the tail vein. The class given is in vivo, athymic nude mice. As to conditions: for Lung weight (breast tumor nodules): n=4, ± S.D., vehicle control 296.6 ± 18.8. On the procedure:
The effect of UBS109 administration on lung metastasis was examined in mice bearing MDA-MB-231 xenografts in the lungs. Animals were administered therapeutic regimens of UBS109 by i.p. once/day 5 days/week (M-F) for 5 weeks, in the following groups: control vehicle, UBS109 at 5 mg/kg in vehicle, and UBS109 15 mg/kg in vehicle (n = 4). […] The cancer cells were mainly found in the lungs and some other sites. […] Treatment with UBS109 15 mg/kg appears the most efficacious in inhibiting tumors (lung colonies) (Figures 2 and 3). […] Lung weight was used to assess the breast cancer colony load present in the lungs of each mouse, since it is difficult to accurately count all colonies outside and inside in each lung.
Female athymic nude mice (nu/nu, Harlan Sprague-Dawley strain; 5-6 weeks old) were housed in a pathogen-free facility. All procedures and protocols were approved by the Institutional Animal Care and Use Committee at Emory University. Mice were randomized into […]: normal group (no tumor cells injected), lung metastasis model group (vehicle control), and two UBS109-treated groups with different dosages, 5 and 15 mg/kg body weight, 4 mice in each group.
Athymic nude mice were housed in a pathogen-free facility and were intravenously injected into the tail vein with breast cancer MDA-MB-231 bone metastatic cells (10^6 cells/mouse) to result in lung metastasis (colonization). One week following injection, mice were randomized to receive either vehicle (0.5% carboxymethyl cellulose sodium [CMC] with 10% DMSO in sterile water) or drug (UBS109). The agents (vehicle, UBS109 at 5 or 15 mg/kg body weight) were administered intraperitoneally (i.p.) daily 5 days per week for 5 weeks (n = 4 mice/regimen). CMC was dissolved in distilled water and sterilized by autoclaving. Due to chemical instability, a stock solution of the drugs was made fresh each time, by weighing out 100 mg UBS109 and dissolving it in 1 mL of 100% DMSO by briefly heating before making the appropriate dilution. […] Body weights were measured once a week.

Series [5] can be described thus: body weight / toxicity during treatment in the lung metastasis model. The class given is in vivo, athymic nude mice. On the procedure: Athymic nude mice were housed in a pathogen-free facility and were intravenously injected into the tail vein with breast cancer MDA-MB-231 bone metastatic cells (10^6 cells/mouse) to result in lung metastasis (colonization). One week following injection, mice were randomized to receive either vehicle (0.5% carboxymethyl cellulose sodium [CMC] with 10% DMSO in sterile water) or drug (UBS109). The agents (vehicle, UBS109 at 5 or 15 mg/kg body weight) were administered intraperitoneally (i.p.) daily 5 days per week for 5 weeks (n = 4 mice/regimen). CMC was dissolved in distilled water and sterilized by autoclaving. Due to chemical instability, a stock solution of the drugs was made fresh each time, by weighing out 100 mg UBS109 and dissolving it in 1 mL of 100% DMSO by briefly heating before making the appropriate dilution. After UBS109 administration for 5 weeks, animals were sacrificed. The lungs containing breast cancer tumors were weighed and fixed in 10% neutralized formalin for 48 h. Paraffin embedded blocks were stained with hematoxylin and eosin (H&E). Body weights were measured once a week.

Details of series [6]: method as in PMID 24628271, PMID 23933177, doi:10.14319/ijcto.32.19. The following applies: cited from earlier work.
Series [7] can be described thus: pharmacokinetic study, single i.p. dose, plasma by LC/MS/MS. The format is in vivo, CD-1 mice. The following applies: 15 mg/kg i.p. The procedure: Pharmacokinetic analysis of the plasma concentration time curve for each animal was conducted using noncompartmental analysis with WinNonlin® Version 6.3.0 (Figure 5). […] This is approximately […] in the blood of mice and, given the molecular weight of UBS109 of 291.4, yields a blood concentration of approximately 1.5 μM.
A pharmacokinetic (PK) study was performed by Agilux Laboratories Inc./Charles River laboratories, Inc. (Worcester, MA, USA). Male CD-1 mice (Harlan Laboratories, Inc.) weighing 28 ± 1.6 grams were used for the PK study. Three mice were administered a single i.p. dose of UBS109 15 mg/kg in 10% DMSO and 90% PBS.
A blood sample (approximately 35–40 μL) was taken from each animal from the tail vein at 4 different time points after dosing: 0.25, 0.5, 2, and 8 h (n=3 mice/time point). Samples were collected into K2EDTA-coated Microvette tubes (Sarstedt) on wet ice (protected from light) and processed to plasma by centrifugation (3500 rpm at 5°C) within 1 hour of collection. All plasma samples were transferred into separate 96 well plates (matrix tubes) and stored at −80°C until analysis for the parent drug by Agilux Laboratories/Charles River laboratories, Inc. via LC/MS/MS.
The plasma samples (10 μL) were deproteinated with acetonitrile (80 μL) and analyzed by LC/MS/MS using an internal standard (carbutamide) spiking technique with an AB SCIEX 6500+ system equipped with a Waters Acuity BEH C18 UPLC column (2 × 50 mm, 1.7 μm) operating at 55°C with mobile phases A (95:5:0.1 H2O:CAN:FA) and B (50:50:0.1 CAN:MeOH:FA). The corresponding time courses were 1.40 and 2.10 min (%MPB 95; Flow 0.800 mL/min) followed by a 2.80 min Strong Needle Rinse (25:25:25:25:0.1 (v:v:v:v:v) MeOH:ACN:IPA:H2O:NH4OH). The verified research grade bioanalytical assay method to determine the plasma concentrations of UBS109 (RGA Level 1) employed an API 6500+ electrospray, positive ion MS/MS device. The mean, standard deviation, and %CV of plasma levels were determined using Microsoft® Office Excel 2007. Mean concentration data was plotted against time to create plasma concentration versus time profiles at each dosage (Table 2 and Figure 5).
Pharmacokinetic analysis of the plasma concentration time curve for each animal was conducted using noncompartmental analysis with WinNonlin® Version 6.3.0. Areas under the curve (AUC) were estimated using the linear trapezoidal rule. The first order rate constant (Lambda Z) associated with the terminal (log-linear) elimination phase was estimated using linear regression of at least three nonzero concentrations versus time points in the late phase of the log concentration versus time profile. The half-life (t.) was calculated as ln(2)/Lambda Z. Nominal times were used in all the data analyses.

Consider `NC1(c2ccc(-c3nc4ccn5c(=O)[nH]nc5c4cc3-c3ccccc3)cc2)CCC1` [Akt inhibitor], for which, in series [1], the “ranking of the cytotoxic activities” value is reported as “UBS109> EF24> HSP90 inhibitor> gemcitabine> Akt inhibitor> p38 MAPK inhibitor”.
Take `Nc1ccn([C@@H]2O[C@H](CO)[C@@H](O)C2(F)F)c(=O)n1` [gemcitabine]: the “ranking of the cytotoxic activities” value in series [1] is on record as “UBS109> EF24> HSP90 inhibitor> gemcitabine> Akt inhibitor> p38 MAPK inhibitor”. Also, the “maximal killing of pancreatic cancer cells” value in series [1] (up to 20 μM used in the test) is recorded as “above 50%”.
Consider diferuloylmethane [curcumin], for which the GI50 in series [2] was 7.3 µM.
As to `N.N.[Cl][Pt][Cl]` [cisplatin], the GI50 in series [2] was 9.5 µM.
With `O=C1/C(=C/c2ccccc2F)CNC/C1=C\c1ccccc1F` [EF24, 3,5-bis(2-flurobenzylidene)piperidin-4-one], the “ranking of the cytotoxic activities” value in series [1] is “UBS109> EF24> HSP90 inhibitor> gemcitabine> Akt inhibitor> p38 MAPK inhibitor”. Moreover, the GI50 in series [2] is 0.7 µM.
The term AUC(0-t) denotes the area under the concentration-time curve up to a stated or last time point. Lower therefore signals less exposure. For orientation: AUC(0-inf) means the area under the concentration-time curve extrapolated to infinity. Low values mean low exposure, high ones high exposure. Turning to `CN1CC(=Cc2ccccn2)C(=O)C(=Cc2ccccn2)C1` [UBS109, 3,5-bis(2-pyridinylmethylidene)-1-methyl-4-piperidone], the “inhibition of all four pancreatic cancer cell lines” value in series [1] (at 0.25 μM) is recorded as 100%. Further, in series [1], the “ranking of the cytotoxic activities” value is given as “UBS109> EF24> HSP90 inhibitor> gemcitabine> Akt inhibitor> p38 MAPK inhibitor”. In addition, the “cell killing of MDA-MB-231 cells” value in series [3] is reported as 100%. Further, in series [4] (15 mg/kg i.p. once daily 5 days/week for 5 weeks), the “effect on lung metastasis/colonization (tumor deposition in the lungs by weight)” value is listed as “significantly reduced; also recorded: significantly inhibited; also recorded: inhibited lung metastases”. Besides, the “Lung weight (breast tumor nodules)” value in series [4] (UBS109 5 mg/kg i.p. once daily 5 days/week for 5 weeks) came out at 285.9 ± 11.2 mg; in series [4] (UBS109 15 mg/kg i.p. once daily 5 days/week for 5 weeks, p<0.05 vs control) it was 226.6 ± 19.8 mg. Also, in series [5] (5 or 15 mg/kg body weight i.p. once daily 5 days a week for 5 weeks), the “toxicity judged from body weight” value is reported as “not toxic”. Further, the “body weight during treatment” value in series [5] (5 or 15 mg/kg i.p. once daily 5 days/week for 5 weeks, versus controls) is “did not lose weight; also recorded: remained the same as in the other groups”. In addition, the “water solubility relative to other MACs” value in series [6] is “most water soluble among the MACs”. Besides, the AUClast in series [7] (individual mouse) is 813 ng·h/mL and 116 ng·h/mL and 1061 ng·h/mL. The Cmax is 398 ng/mL and 623 ng/mL and 835 ng/mL in series [7] (individual mouse); 432 ± 387 ng/mL in series [7] (male, CD-1, mouse, plasma, ip, 15 mg/kg, at 15 min post injection, read-out: maximal blood concentration (Cmax)); 619 ng/mL in series [7] (male, CD-1, mouse, plasma, ip, 15 mg/kg, mean of 3 mice, read-out: Cmax). The “Extrapolated (AUC)” value in series [7] (individual mouse) and in series [7] (mean (only mouse 2 reported)) was 6.15% in each case. For the same molecule, the “T ½” value in series [7] (mean of mice (only mouse 2 reported)) came out at 1.97 h. Further, the “approximate concentration in the blood of mice” value in series [7] (restated from Cmax) was “approximately 1.5 ng/ml”. The molecule further had an area under the curve AUC(0-t) in series [7] (male, CD-1, mouse, plasma, ip, 15 mg/kg, mean of 3 mice) of 664 ng·h/mL. For the same molecule, the Tmax in series [7] (male, CD-1, mouse, plasma, ip, read-out: time of maximal blood concentration post injection (converted)) was 0.25 h. The same molecule came in with an AUC(0-inf) in series [7] (male, CD-1, plasma, ip, individual mouse) of 124 ng·h/mL. For the same molecule, the half-life in series [7] (male, CD-1, plasma, ip, individual mouse, read-out: T ½ (converted)) is 1.97 h.
For `CC(C)c1cc(-c2n[nH]c(=O)n2-c2ccc3c(ccn3C)c2)c(O)cc1O` [HSP90 inhibitor], the “ranking of the cytotoxic activities” value in series [1] is on record as “UBS109> EF24> HSP90 inhibitor> gemcitabine> Akt inhibitor> p38 MAPK inhibitor”.
